Consider 7 compounds from patent US6759544B2, “Antimicrobially active acesulfame complexes, process for their preparation and their use” (Nutrinova Nutrition Specialties & Food Ingredients GmbH, priority 2001, dated 2004).

Usually MIC stands for the lowest concentration that inhibits growth of the organism. Higher therefore signals a need for much substance.

Common to all, as to assay type: cell-based
In assay [1] the test system is Actinomyces odontolyticus (ATCC 17982). Put plainly: Minimum inhibitory concentration, Actinomyces odontolyticus. The procedure:
(§1) Method for Determining the Minimum Inhibitory Concentration
(§2) The samples, to determine the minimum inhibitory concentration, are dissolved in WSH (water of standardized hardness) and mixed with twice-concentrated Caso-Bouillon pH 5.5. After inoculation with the test organisms, the solutions of the test organisms Streptococcus mutans (ATCC 25175) and Actinomyces odontolyticus (ATCC 17982) were overlayered with paraffin and incubated for a period of three days at a temperature of 37° C.
(§3) The solution of the test organism Staphylococcus aureus (ATCC 6538) was incubated for two days at 37° C. The samples were then streaked onto Caso agar and incubated for two days at 37° C.

In assay [2] the test system is Staphylococcus aureus (ATCC 6538). In words: Minimum inhibitory concentration, Staphylococcus aureus. The procedure:
as §1, §2, §3

For assay [3], the system named is Streptococcus mutans (ATCC 25175). Put plainly: Minimum inhibitory concentration, Streptococcus mutans. As to the method:
as §1, §2, §3

The mark [4] stands for this setting: Actinomyces odontolyticus (ATCC 17982), Caso-Bouillon pH 5.5, overlayered with paraffin, three days at 37° C.
The mark [5] stands for this setting: Staphylococcus aureus (ATCC 6538), Caso-Bouillon pH 5.5, two days at 37° C.
The mark [6] stands for this setting: Streptococcus mutans (ATCC 25175), Caso-Bouillon pH 5.5, overlayered with paraffin, three days at 37° C.

As to `O.O.O.O.O.O=S(=O)([O-])[O-].[Cu+2]` [CuSO4.5H2O, copper(II) sulfate pentahydrate], the Minimum inhibitory concentration in assay [1] (pH 5.5) is 20.13 mM; in assay [2] (pH 5.5), 20.13 mM; in assay [3] (pH 5.5), 4.01 mM.

Consider `CC1=CC(=O)[N-]S(=O)(=O)O1.[Ag+]` [Ag(acesulfame).0.25H2O, Acesulfame-Silver Complex], for which the Minimum inhibitory concentration was determined as 18.31 mM in assay [1] (setting [4]), 3.65 mM in assay [2] (setting [5]) and 18.31 mM in assay [3] (setting [6]).

Turning to `O.O.O.O.O.O.O.O=S(=O)([O-])[O-].[Zn+2]` [ZnSO4.7H2O, zinc(II) sulfate heptahydrate], the Minimum inhibitory concentration in assay [1] (pH 5.5), in assay [2] (pH 5.5) and in assay [3] (pH 5.5) was 17.5 mM in each case.

With `CC1=CC(=O)[N]([Zn]([OH])([OH])[N]2C(=O)C=C(C)OS2(=O)=O)S(=O)(=O)O1` [Zn(acesulfame)2.2H2O, Acesulfame-Zinc Complex], the MIC was 11.8 mM in assay [1] (Schaalia odontolytica, ATCC17982, 72 h, Actinomyces odontolyticus (ATCC 17982), Caso-Bouillon pH 5.5, overlayered with paraffin, three days at 37° C.); 23.7 mM in assay [2] (ATCC6538, 48 h, Staphylococcus aureus (ATCC 6538), Caso-Bouillon pH 5.5, two days at 37° C.); 23.7 mM in assay [3] (ATCC25175, 72 h, Streptococcus mutans (ATCC 25175), Caso-Bouillon pH 5.5, overlayered with paraffin, three days at 37° C.).

In the case of `CCCCCCCCCCCCCCCC[n+]1ccccc1.O.[Cl-]` [Cetylpridinium chloride.H2O, cetylpyridinium chloride.H2O], the Minimum inhibitory concentration is 0.00279 mM in assay [1] (pH 5.5), 0.13966 mM in assay [2] (pH 5.5) and 0.00279 mM in assay [3] (pH 5.5).

Consider `O=[N+]([O-])[O-].[Ag+]` [AgNO3, silver(I) nitrate], for which the Minimum inhibitory concentration in assay [1] (setting [4]), in assay [2] (setting [5]) and in assay [3] (setting [6]) was 5.91 mM throughout.

As for `CC1=CC(=O)[N-]S(=O)(=O)O1.CCCCCCCCCCCCCCCC[n+]1ccccc1` [Cetylpyridinium(acesulfame), Acesulfame-Cetylpyridinium Complex], the figures for the Minimum inhibitory concentration in assay [1] (pH 5.5), in assay [2] (pH 5.5) and in assay [3] (pH 5.5) were 0.00214 mM, 0.10703 mM and 0.00214 mM, respectively.
